Measurements as given in patent publication US20060079696A1, “Substituted compounds derived from N-(benzyl)phenylacetamide, preparation and uses” (GENFIT, priority 2004, published 2006).

Experiments:
[1] = biological target: T1, ATP-dependent potassium channels (K+ATP) (Rattus norvegicus, UniProt Q09429); assay: [3H]glibenclamide binding to ATP-dependent potassium channels of rat cerebral cortex; conditions: 1 h; 300 nM; specific displacement of [3H]glibenclamide 0.1 nM; read-out: KATP binding (300 nM)
T1 construct: the potassium channels derive from a rat's cerebral cortex; tissue CEREP; host or cells: rat cerebral cortex
T1 sequence (Q09429 whole entry): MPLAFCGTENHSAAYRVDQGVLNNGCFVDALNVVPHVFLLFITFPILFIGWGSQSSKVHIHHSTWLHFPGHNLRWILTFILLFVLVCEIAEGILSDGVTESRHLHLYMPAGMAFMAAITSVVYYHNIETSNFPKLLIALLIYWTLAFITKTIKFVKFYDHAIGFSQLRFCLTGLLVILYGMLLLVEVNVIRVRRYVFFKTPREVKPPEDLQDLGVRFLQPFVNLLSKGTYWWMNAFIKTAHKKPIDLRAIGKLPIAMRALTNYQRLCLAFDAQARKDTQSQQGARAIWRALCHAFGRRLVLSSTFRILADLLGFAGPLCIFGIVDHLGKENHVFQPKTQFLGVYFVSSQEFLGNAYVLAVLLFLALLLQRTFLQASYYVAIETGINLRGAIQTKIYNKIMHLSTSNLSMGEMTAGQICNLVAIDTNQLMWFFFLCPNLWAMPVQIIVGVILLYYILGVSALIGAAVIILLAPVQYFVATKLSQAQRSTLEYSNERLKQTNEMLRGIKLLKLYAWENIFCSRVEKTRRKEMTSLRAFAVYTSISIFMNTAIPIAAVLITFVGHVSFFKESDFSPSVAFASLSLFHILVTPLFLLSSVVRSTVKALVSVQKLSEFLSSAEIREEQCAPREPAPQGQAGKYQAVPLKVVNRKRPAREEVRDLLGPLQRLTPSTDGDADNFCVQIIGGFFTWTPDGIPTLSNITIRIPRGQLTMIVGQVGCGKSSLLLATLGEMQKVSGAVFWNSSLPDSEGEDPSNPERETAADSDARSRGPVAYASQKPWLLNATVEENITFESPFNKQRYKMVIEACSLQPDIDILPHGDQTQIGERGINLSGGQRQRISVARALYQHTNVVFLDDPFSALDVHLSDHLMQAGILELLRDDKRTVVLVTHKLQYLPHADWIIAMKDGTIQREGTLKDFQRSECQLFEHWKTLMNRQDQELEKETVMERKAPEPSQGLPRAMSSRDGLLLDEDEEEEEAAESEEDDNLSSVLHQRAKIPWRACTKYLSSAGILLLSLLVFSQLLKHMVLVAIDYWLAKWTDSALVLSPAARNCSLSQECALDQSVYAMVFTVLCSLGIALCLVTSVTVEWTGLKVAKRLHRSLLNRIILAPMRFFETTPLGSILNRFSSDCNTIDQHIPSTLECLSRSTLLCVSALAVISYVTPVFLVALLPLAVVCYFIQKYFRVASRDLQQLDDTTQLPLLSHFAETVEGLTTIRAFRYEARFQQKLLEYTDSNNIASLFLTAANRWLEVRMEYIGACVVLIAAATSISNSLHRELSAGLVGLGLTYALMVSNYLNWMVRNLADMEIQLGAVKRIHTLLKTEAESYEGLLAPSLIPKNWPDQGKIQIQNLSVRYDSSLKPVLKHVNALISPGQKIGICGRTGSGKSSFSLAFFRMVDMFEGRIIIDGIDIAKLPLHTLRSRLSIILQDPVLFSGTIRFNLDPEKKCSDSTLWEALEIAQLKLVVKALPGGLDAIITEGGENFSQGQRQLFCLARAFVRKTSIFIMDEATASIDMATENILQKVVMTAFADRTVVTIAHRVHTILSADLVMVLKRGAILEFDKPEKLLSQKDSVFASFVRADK
T1 sequence (P70673 whole entry partner): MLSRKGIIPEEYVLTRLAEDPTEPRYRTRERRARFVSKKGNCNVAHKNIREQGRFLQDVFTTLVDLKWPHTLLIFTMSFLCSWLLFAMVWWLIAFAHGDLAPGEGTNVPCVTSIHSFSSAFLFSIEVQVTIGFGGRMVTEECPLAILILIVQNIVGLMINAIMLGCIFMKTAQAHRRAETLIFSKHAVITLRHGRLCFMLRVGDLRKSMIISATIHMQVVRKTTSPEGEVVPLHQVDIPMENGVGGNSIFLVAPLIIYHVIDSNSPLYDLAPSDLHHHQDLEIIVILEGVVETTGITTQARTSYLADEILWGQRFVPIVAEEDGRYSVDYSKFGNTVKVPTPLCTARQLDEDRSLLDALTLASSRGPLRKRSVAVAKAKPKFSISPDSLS
Protocol: The results shown reflect the specific affinity of the inventive compounds on the ATP-dependent (K^+ATP) potassium channels. The specific binding measured corresponds to the difference between the total binding and the non-specific binding determined in the presence of an excess of non-marked reference ligand (glibenclamide 1 μM). The inventive compounds were tested at doses between 3 and 300 nM: the higher the percentage measured, the stronger the affinity of the compound for the ATP-dependent potassium channels.
The binding test was carried out at CEREP (Celle L'Evescault, France (86)) according to a protocol inspired by Angel et al. (Angel and Bidet 1991): the potassium channels derive from a rat's cerebral cortex and the reference compound is [^3H]glibenclamide at 0.1 nM. The protocol consists of incubation at 22° C. for one hour.

hPPARδ = biological target: T2, hPPARδ (Homo sapiens, UniProt Q03181); assay: Gal4-hPPARδ chimera transactivation in COS-7 cells (luciferase); assay type: cell-based; conditions: induction factor standardised to an internal reference, read-out: % hGal4-PPAR transactivation (10 μM) delta
T2 construct: fragments of DNA amplified by PCR corresponding to the DEF domains of the human PPARα, PPARγ PPARδ nuclear receptors; expressed in transfected cells; host or cells: COS-7 (monkey kidney fibroblast line)
T2 sequence (Q03181 211-439 limits assumed): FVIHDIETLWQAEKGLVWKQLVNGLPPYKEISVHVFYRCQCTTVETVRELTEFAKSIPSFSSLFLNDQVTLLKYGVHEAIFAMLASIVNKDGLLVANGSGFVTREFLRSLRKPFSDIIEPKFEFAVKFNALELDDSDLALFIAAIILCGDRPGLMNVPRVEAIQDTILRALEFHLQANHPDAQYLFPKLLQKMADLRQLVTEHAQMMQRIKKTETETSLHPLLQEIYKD
Protocol: (§1) The PPAR activation was evaluated in vitro on a monkey kidney fibroblast line (COS-7) by measuring the transcriptional activity of chimeras constituted of the DNA binding domain of the Gal4 transcription factor of yeast and of the binding domain to the ligand of the different PPARs. The compounds were tested at doses between 0.01 and 100 μM on Gal4-PPARα, γ, δ chimeras. The induction factor (ratio between the luminescence induced by the compound and the luminescence induced by the control) was measured for each condition: the higher this factor, the more the compound has PPAR-activating properties.
(§2) The COS-7 cells from ATCC were cultivated in a DMEM medium supplemented with 10% (vol/vol) of foetal calf serum, 100 U/ml penicillin (Gibco, Paisley, UK) and 2 mM L-Glutamine (Gibco, Paisley, UK). The cells were incubated at 37° C. in a humid atmosphere containing 5% CO2.
(§3) The Gal4(RE)_TkpGL3, pGal4-hPPARα, pGal4-hPPARγ, pGal4-hPPARδ and pGal4-φ plasmids have been described in the literature (Raspe, Madsen et al. 1999). The pGal4-hPPARα, pGal4-hPPARγ and pGal4-hPPARδ constructs were obtained by cloning in the pGal4-φ vector of fragments of DNA amplified by PCR corresponding to the DEF domains of the human PPARα, PPARγ PPARδ nuclear receptors.
(§4) COS-7 cells were plated in 96 wells plates (5×10^4 cells/well) and transfected, in the presence of 10% foetal calf serum and 150 ng DNA per well, with a pGal4-PPAR/Gal4(RE)_TkpGL3 ratio of 1/10. The cells were then incubated for 24 hours with the compounds to be tested, without serum. At the end of the experiment, the cells were lysed and the luciferase activities were determined by means of Steady Glow Luciferase (Promega) according to the supplier's recommendations.
(§5) The inventive compounds were tested at 10 μM on the 3 PPAR isoforms. The results obtained are detailed in table (1). The transactivation measured is expressed as a response ratio versus an internal reference for each of the isoforms.
(§6) The compounds were tested at 10 μM on the Gal4-PPARα, γ, δ chimeras. The induction factor, i.e. the ratio between the luminescence induced by the compound and the luminescence induced by the control, was measured for each condition. It was then standardised in comparison to an internal reference and the results were then expressed in percentages : the higher the activation percentage, the more the compound has PPAR-activating properties.

hPPARα = biological target: T3, hPPARα (Homo sapiens, UniProt Q07869); assay: Gal4-hPPARα chimera transactivation in COS-7 cells (luciferase); assay type: cell-based; conditions: induction factor standardised to an internal reference, read-out: % hGal4-PPAR transactivation (10 μM) alpha
T3 construct: fragments of DNA amplified by PCR corresponding to the DEF domains of the human PPARα, PPARγ PPARδ nuclear receptors; expressed in transfected cells; host or cells: COS-7 (monkey kidney fibroblast line)
T3 sequence (Q07869 239-466 limits assumed): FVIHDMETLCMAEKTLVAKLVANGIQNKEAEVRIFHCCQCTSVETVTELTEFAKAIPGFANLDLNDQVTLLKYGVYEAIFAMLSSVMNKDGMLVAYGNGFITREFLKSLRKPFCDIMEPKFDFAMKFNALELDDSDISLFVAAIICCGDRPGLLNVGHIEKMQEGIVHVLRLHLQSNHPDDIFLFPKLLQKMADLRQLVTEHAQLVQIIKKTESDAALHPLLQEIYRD
Protocol: as §1, §2, §3, §4, §5, §6

hPPARγ = biological target: T4, hPPARγ (Homo sapiens, UniProt P37231); assay: Gal4-hPPARγ chimera transactivation in COS-7 cells (luciferase); assay type: cell-based; conditions: induction factor standardised to an internal reference, read-out: % hGal4-PPAR transactivation (10 μM) gamma
T4 construct: fragments of DNA amplified by PCR corresponding to the DEF domains of the human PPARα, PPARγ PPARδ nuclear receptors; expressed in transfected cells; host or cells: COS-7 (monkey kidney fibroblast line)
T4 sequence (P37231 238-503 limits assumed): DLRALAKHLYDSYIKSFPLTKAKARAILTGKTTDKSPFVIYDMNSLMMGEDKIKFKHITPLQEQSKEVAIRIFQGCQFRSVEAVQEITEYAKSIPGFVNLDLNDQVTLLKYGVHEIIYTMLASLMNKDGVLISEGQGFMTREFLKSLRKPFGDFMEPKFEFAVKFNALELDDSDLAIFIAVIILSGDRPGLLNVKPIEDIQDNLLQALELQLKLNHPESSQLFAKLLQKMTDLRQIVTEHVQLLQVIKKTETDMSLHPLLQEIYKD
Protocol: as §1, §2, §3, §4, §5, §6

| inhibition at 0.3 µM [1] | activation at 10 µM (hPPARδ) | activation at 10 µM (hPPARα) | activation at 10 µM (hPPARγ) | SMILES |
| --- | --- | --- | --- | --- |
| 30% | < 10% | 35% | 17% | CC(C)CC(NC(=O)Cc1ccc(OCCCC(C)(C)C(=O)O)cc1)c1ccccc1N1CCCCC1 (stereo not shown) [Compound 28, 5-[4-[1-(3-methyl-1-(2-(1-piperidinyl)phenyl)butyl)aminocarbonylmethyl]phenoxy]-2,2-dimethylpentanoic acid] |
| 23% | < 10% | 20% | < 10% | CCCCC(NC(=O)Cc1ccc(OC(C)(C)C(=O)NS(=O)(=O)c2ccccc2)cc1)c1ccccc1N1CCCCC1 (stereo not shown) [Compound 61, N-[phenylsulfonyl]-2-[4-[1-(1-(2-(1-piperidinyl)phenyl)pentyl)aminocarbonylmethyl]phenoxy]-2-methylpropanamide] |
| 27% | < 10% | < 10% | 33% | Cc1cccc(CC(NC(=O)Cc2ccc(OC(C)(C)C(=O)O)cc2)c2ccccc2N2CCCCC2)c1 (stereo not shown) [Compound 55, 2-[4-[1-(2-(3-methylphenyl)-1-(2-(1-piperidinyl)phenyl)ethyl)aminocarbonylmethyl]phenoxy]-2-methylpropanoic acid] |
| 51% | 23% | < 10% | 42% | CCCCC(NC(=O)Cc1ccc(OC(C)(C)C(=O)O)cc1)c1ccc(Br)cc1N1CCCCC1 (stereo not shown) [Compound 33, 2-[4-[1-(1-(2-(1-piperidinyl)-4-(bromo)phenyl)pentyl)aminocarbonylmethyl]phenoxy]-2-methylpropanoic acid] |
| 68% | 24% | < 10% | 25% | CC(C)CC(NC(=O)Cc1ccc(OC(C)(C)C(=O)O)cc1)c1ccc(C(F)(F)F)cc1N1CCCCC1 (stereo not shown) [Compound 21, 2-[4-[1-(3-methyl-1-(2-(1-piperidinyl)-4-(trifluoromethyl)phenyl)butyl)aminocarbonylmethyl]phenoxy]-2-methylpropanoic acid] |
| 18% | < 10% | 29% | < 10% | CC(C)CC(NC(=O)Cc1ccc(OCCCCC(C)(C)C(=O)O)cc1)c1ccccc1N1CCCCC1 (stereo not shown) [Compound 57, 6-[4-[1-(3-methyl-1-(2-(1-piperidinyl)phenyl)butyl)aminocarbonylmethyl]phenoxy]-2,2-dimethylhexanoic acid] |
| 67% | < 10% | 26% | < 10% | CCCCC(NC(=O)Cc1ccc(OC(C)(C)C(=O)NS(=O)(=O)Cc2ccccc2)cc1)c1ccccc1N1CCCCC1 (stereo not shown) [Compound 63, N-[benzylsulfonyl]-2-[4-[1-(1-(2-(1-piperidinyl)phenyl)pentyl)aminocarbonylmethyl]phenoxy]-2-methylpropanamide] |
| 71% | < 10% | 40% | 34% | CC(C)(Oc1ccc(CC(=O)NC(Cc2ccccc2)c2ccccc2N2CCCCC2)cc1)C(=O)O (stereo not shown) [Compound 7, 2-[4-[1-(2-phenyl-1-(2-(1-piperidinyl)phenyl)ethyl)aminocarbonylmethyl]phenoxy]-2-methylpropanoic acid] |
| 93% | < 10% | < 10% | 25% | CC(C)CC(C(=O)NCc1ccc(OC(C)(C)C(=O)O)cc1)c1ccccc1N1CCCCC1 (stereo not shown) [Compound 32, 2-[4-[1-(3-methyl-1-(2-(1-piperidinyl)phenyl)butyl)carbonylaminomethyl]phenoxy]-2-methylpropanoic acid] |
| 79% | < 10% | < 10% | 30% | CCCCC(NC(=O)Cc1ccc(OC(C)(C)C(=O)O)cc1)c1ccccc1OC (stereo not shown) [Compound 54, 2-[4-[1-(1-(2-(methoxy)phenyl)pentyl)aminocarbonylmethyl]phenoxy]-2-methylpropanoic acid] |
| – | < 10% | 58% | 12% | CCN(CCCC(C)(C)C(=O)O)c1ccc(CC(=O)NC(CC(C)C)c2ccccc2N2CCCCC2)cc1 (stereo not shown) [Compound 46, 5-{N-ethyl-N-[4-[1-(3-methyl-1-(2-(1-piperidinyl)phenyl)butyl)aminocarbonylmethyl]phenyl]amino}-2,2-dimethylpentanoic acid] |
| – | 18% | 13% | < 10% | CCCCC(NC(=O)Cc1ccc(OC(C)(C)C(=O)O)cc1)c1ccc(-n2ccc3ccccc32)cc1N1CCCCC1 (stereo not shown) [Compound 38, 2-[4-[1-(1-(2-(1-piperidinyl)-4-(1H-indolyl)phenyl)pentyl)aminocarbonylmethyl]phenoxy]-2-methylpropanoic acid] |
| – | < 10% | < 10% | 13% | CCCCC(NC(=O)Cc1ccc(OCc2nnn[nH]2)cc1)c1ccccc1N1CCCCC1 (stereo not shown) [Compound 70, 2-(4-((1H-tetrazol-5-yl)methoxy)phenyl)-N-[1-(1-(2-(1-piperidinyl)phenyl)pentyl)]acetamide] |
| – | < 10% | 42% | < 10% | CCCCC(NC(=O)Cc1ccc(OCCCC(Cl)(Cl)C(=O)O)cc1)c1ccccc1N1CCCCC1 (stereo not shown) [Compound 47, 5-[4-[1-(1-(2-(1-piperidinyl)phenyl)pentyl)aminocarbonylmethyl]phenoxy]-2,2-dichloropentanoic acid] |
| – | < 10% | 27% | 18% | CCCCC(NC(=O)Cc1ccc(OC(C)(C)C(=O)O)cc1)c1ccccc1N1C[C@H](C)C[C@H](C)C1 (stereo partly drawn) [Compound 43, 2-[4-[1-(1-(2-((3S,5R)-3,5-dimethylpiperidine-1-yl)phenyl)pentyl)aminocarbonylmethyl]phenoxy]-2-methylpropanoic acid] |
| – | < 10% | < 10% | 42% | CCCCC(NC(=O)Cc1ccc(OC(C)(C)C(=O)O)c(OC)c1)c1ccccc1N1CCCCC1 (stereo not shown) [Compound 73, 2-[2-methoxy-4-[1-(1-(2-(1-piperidinyl)phenyl)pentyl)aminocarbonylmethyl]phenoxy]-2-methylpropanoic acid] |
